Assay results as given in the supplement of paper PMC10883282.
± gives the standard deviation of the averaged measurements.

Test system: RD
Assay: relative viability vs DMSO control (72 h) (fraction); higher = more viable cells
Summary of the method: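 Densities for seeding sarcoma cell lines into 384-well plates were set to give 80–90% confluence. After 24 h, 2.5 µl of serially diluted compound from source plates of 10 mM to 0.0002 mM went in, and plates stayed 72 h at 37 °C in 5% CO2 with 0.1% DMSO vehicle and a 5 µM positive control. Percent growth from ATPLite readings, averaged over up to triplicate wells, served as relative viability, rescaled so 1 means full and 0 means none.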

## COc1cc2/c(=N/c3ccc(Br)cc3F)nc[nH]c2cc1OCC1CCN(C)CC1 [Vandetanib]
0.00017 µM
  relative viability: 1.1 ± 0.074
0.00051 µM
  relative viability: 1.1 ± 0.066
0.00152 µM
  relative viability: 1.09 ± 0.057
0.00457 µM
  relative viability: 1.11 ± 0.081
0.01372 µM
  relative viability: 1.1 ± 0.055
0.04115 µM
  relative viability: 1.11 ± 0.088
0.1235 µM
  relative viability: 1.04 ± 0.083
0.3704 µM
  relative viability: 1.01 ± 0.061
1.111 µM
  relative viability: 0.96 ± 0.037
3.333 µM
  relative viability: 0.139 ± 0.017
10 µM
  relative viability: 0.0241 ± 0.0083

## CCCS(=O)(=O)Nc1ccc(F)c(C(=O)c2c[nH]c3ncc(-c4ccc(Cl)cc4)cc23)c1F [Vemurafenib]
0.00017 µM
  relative viability: 1.14 ± 0.071
0.00051 µM
  relative viability: 1.12 ± 0.08
0.00152 µM
  relative viability: 1.14 ± 0.073
0.00457 µM
  relative viability: 1.13 ± 0.073
0.01372 µM
  relative viability: 1.12 ± 0.059
0.04115 µM
  relative viability: 1.13 ± 0.061
0.1235 µM
  relative viability: 1.11 ± 0.053
0.3704 µM
  relative viability: 1.12 ± 0.053
1.111 µM
  relative viability: 1.14 ± 0.07
3.333 µM
  relative viability: 1.11 ± 0.036
10 µM
  relative viability: 0.785 ± 0.079

## C[C@@H](c1ccc2nccn2c1)n1nnc2ncc(-c3cnn(C)c3)nc21 [Volitinib]
0.00017 µM
  relative viability: 1.11 ± 0.027
0.00051 µM
  relative viability: 1.11 ± 0.036
0.00152 µM
  relative viability: 1.14 ± 0.03
0.00457 µM
  relative viability: 1.12 ± 0.039
0.01372 µM
  relative viability: 1.11 ± 0.022
0.04115 µM
  relative viability: 1.1 ± 0.02
0.1235 µM
  relative viability: 1.14 ± 0.016
0.3704 µM
  relative viability: 1.14 ± 0.023
1.111 µM
  relative viability: 1.09 ± 0.017
3.333 µM
  relative viability: 1.07 ± 0.037
10 µM
  relative viability: 1.02 ± 0.037

## C=CC(=O)N1CCC([C@@H]2CCNc3c(C(N)=O)c(-c4ccc(Oc5ccccc5)cc4)nn32)CC1 [Zanubrutinib]
0.00017 µM
  relative viability: 0.942 ± 0.064
0.00051 µM
  relative viability: 0.952 ± 0.048
0.00152 µM
  relative viability: 0.964 ± 0.068
0.00457 µM
  relative viability: 0.958 ± 0.058
0.01372 µM
  relative viability: 0.952 ± 0.046
0.04115 µM
  relative viability: 0.96 ± 0.079
0.1235 µM
  relative viability: 0.926 ± 0.075
0.3704 µM
  relative viability: 0.893 ± 0.11
1.111 µM
  relative viability: 0.876 ± 0.1
3.333 µM
  relative viability: 0.847 ± 0.081
10 µM
  relative viability: 0.843 ± 0.06
